These results are taken from US8912200B2, “Alkynyl substituted pyrimidinyl-pyrroles active as kinases inhibitors” (Nerviano Medical Sciences S.R.L., priority 2011, dated 2014).

The subject of test [1] is JAK2 dependent human megakaryoblastic leukemia cell line SET-2. Briefly: Cell proliferation assay (CellTiter-Glo, 72 hours). In kind it is cell-based. Conditions: Homo sapiens, SET-2 cells. On the procedure: The JAK2 dependent human megakaryoblastic leukemia cell line SET-2 (DSMZ, Braunschweig GERMANY) and the JAK2 independent human chronic myelogenous leukaemia cell line K562 (ECACC, Wiltshire, UK) were cultured in RPMI-1640 medium-Glutamax (Gibco BRL, Gaithesburg, Md., USA), supplemented with 10% fetal bovine serum (FBS) at 37° C. and 5% CO2.
Cell Proliferation Assay:
Approximately 5×10^3 cells were plated into 384 microtiter plate wells in 50 μL of growth media with different concentrations of inhibitors. The cells were incubated at 37° C. and 5% CO2 for 72 hours, then the plates were processed using CellTiter-Glo assay (Promega, Madison, Wis., USA) following the manufacturer's instruction. Briefly 25 μL/well reagent solution is added to each well and after 5 minutes shaking the micro-plates are read by Envision luminometer (PerkinElmer, Waltham, Mass., USA).
Data are analyzed by Symix Assay Explorer software (Symix Technologies Inc.) that provides sigmoidal fitting algorithm of the 8 points dilutions curves for IC50 determination.

Another test has as its target T1, Lyn full length (Homo sapiens, UniProt P07948).
T1 construct: The assay has been performed using Lyn full length
The test can be described thus: Biochemical assay for inhibitors of Lyn (Src family) kinase activity. As to conditions: Lyn full length 1 nM, 25 μM ATP. The text has this:
Biochemical Assay for Inhibitors of Lck and Lyn (Src Family) Kinases Activity
Specific Lck and Lyn substrates are trans-phosphorylated by Lck and Lyn kinases in the presence of ATP traced with 33P-γ-ATP. At the end of the phosphorylation reaction, the unreacted ATP, cold and radioactive, is captured by an excess of dowex ion exchange resin that eventually settles by gravity to the bottom of the reaction plate. The supernatant is subsequently withdrawn and transferred into a counting plate that is then evaluated by β-counting.
Lyn Specific Assay Conditions
The assay has been performed using Lyn full length (accession number P07948 of UniProtKB/Swiss-Prot database).
Kinase buffer was composed of 50 mM HEPES pH 7.5 containing 3 mM MgCl2, 1 mM DTT, 3 μM Na3VO4, and 0.2 mg/mL BSA.
The Lyn kinase assay was run with a final enzyme concentration of 1 nM, in the presence of 25 μM ATP, 1.5 nM 33P-γ-ATP and 250 μM of substrate ABI 1 (Aminoacid sequence: EAIYAAPFAKKK—SEQ ID NO: 3). The peptidic substrate was purchased from American Peptide Company (Sunnyvale, Calif.).
(§1) For IC50 determination, test compounds are received as a 1 mM solution in 100% DMSO, distributed into 96 well plates: compounds are then plated into the first column of a microtiter plate (A1 to G1), 100 μL/well.
(§2) An automated station for serial dilutions (Biomek FX, Beckman) is used for producing 1:3 dilutions in 100% DMSO, from line A1 to A10, and for all the compounds in the column. Moreover, 4-5 copies of daughter plates are prepared by reformatting 5 μL of this first set of 100% DMSO dilution plates into 384 deep well-plates: one of these plates with the serial dilutions of test compounds will be thawed the day of the experiments, reconstituted at a 3× concentration with water and used in the IC50 determination assays. In a standard experiment, the highest concentration (3×) of all compounds is 30 μM, while the lowest one is 1.5 nM. Each 384 well-plate will contain at least one curve of the standard inhibitor staurosporine and reference wells (total enzyme activity vs. no enzymatic activity) for the Z′ and signal to background evaluation.
(§3) 384-well plates, V bottom (test plates) are prepared with 5 μL of the compound dilution (3×) and then placed onto a PlateTrak 12 robotized station (Perkin Elmer; the robot has one 384-tip pipetting head for starting the assay plus one 96-tip head for dispensing the resin) together with one reservoir for the Enzyme mix (3×) and one for the ATP mix (3×). At the start of the run, the robot aspirates 5 μL of ATP mix, makes an air gap inside the tips (3 μl) and aspirates 5 μL of JAK2 mix. The following dispensation into the plates plus 3 cycles of mixing, done by the robot itself, starts the kinase reaction. At this point, the correct concentrations are restored for all the reagents. The robot incubates the plates for 60 minutes at room temperature, and then stops the reaction by pipetting 60 μL of dowex resin suspension into the reaction mix. In order to avoid tip clogging, wide bore tips are used to dispense the resin suspension. Three cycles of mixing are done immediately after the addition of the resin. Another mixing cycle is performed after all the plates are stopped, this time using normal tips: the plates are then allowed to rest for about one hour in order to allow resin sedimentation. At this point, 27 μL of the supernatant are transferred into 384-Optiplates (Perkin-Elmer), with 50 μL of Microscint 40 (Perkin-Elmer); after 5 min of orbital shaking the plates are read on a Perkin-Elmer Top Count radioactivity counter.
Data are analyzed by an internally customized version of the SW package “Assay Explorer” that provides sigmoidal fitting of the ten-dilutions curves for IC50 determination in the secondary assays/hit confirmation routines.

The next test deals with T2, JAK2 kinase domain (Homo sapiens, UniProt O60674).
T2 construct: commercially available JAK2 kinase domain; purchased Invitrogen, Eugene, Oreg
Briefly: Biochemical assay for inhibitors of JAK kinase activity (JAK2, 33P-γ-ATP/dowex resin). As to conditions: JAK2 kinase domain 1 nM, 60 μM ATP.
Description: Biochemical Assay for Inhibitors of JAK Kinase Activity
Specific JAK2, JAK1 or JAK3 peptide substrates are trans-phosphorylated by JAK kinases in the presence of ATP traced with 33P-γ-ATP. At the end of the phosphorylation reaction, the unreacted ATP, cold and radioactive, is captured by an excess of dowex ion exchange resin that eventually settles by gravity to the bottom of the reaction plate. The supernatant is subsequently withdrawn and transferred into a counting plate that is then evaluated by β-counting.
500 g of wet resin (SIGMA, custom prepared resin DOWEX 1×8 200-400 mesh, 2.5 Kg) are weighed out and diluted 2 to 1 in 150 mM sodium formate, pH 3.00. The resin is allowed to settle down overnight and then the supernatant is discarded. After three washes as above over a couple of days, the resin is allowed to settle and two volumes (with respect to the resin volume) of 150 mM sodium formate buffer are added.
Kinase buffer was composed of 50 mM HEPES pH 7.5 containing 10 mM MgCl2, 2.5 mM DTT, 10 μM Na3VO4 and 0.2 mg/mL BSA.
JAK2 Specific Assay Conditions
The JAK2 kinase assay was run with a final enzyme concentration of 1 nM, in the presence of 60 μM ATP, 3 nM 33P-γ-ATP and 64 μM of substrate BioDBn*306 (Aminoacid sequence: LPLDKDYYVVREPGQ—SEQ ID NO: 1). The peptidic substrate was purchased from American Peptide Company (Sunnyvale, Calif.).
as §1, §2
as §3, with “counter. […]” for “counter.”

T2 sequence (O60674 849-1124 limits assumed): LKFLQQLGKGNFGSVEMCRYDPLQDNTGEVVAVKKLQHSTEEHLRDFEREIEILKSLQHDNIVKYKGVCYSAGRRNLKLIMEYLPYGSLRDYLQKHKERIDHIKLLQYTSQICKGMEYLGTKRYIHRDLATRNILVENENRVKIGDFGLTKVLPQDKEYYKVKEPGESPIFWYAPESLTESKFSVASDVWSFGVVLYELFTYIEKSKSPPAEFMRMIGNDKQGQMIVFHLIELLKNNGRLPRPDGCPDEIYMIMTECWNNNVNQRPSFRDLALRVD
T1 sequence (P07948 whole entry): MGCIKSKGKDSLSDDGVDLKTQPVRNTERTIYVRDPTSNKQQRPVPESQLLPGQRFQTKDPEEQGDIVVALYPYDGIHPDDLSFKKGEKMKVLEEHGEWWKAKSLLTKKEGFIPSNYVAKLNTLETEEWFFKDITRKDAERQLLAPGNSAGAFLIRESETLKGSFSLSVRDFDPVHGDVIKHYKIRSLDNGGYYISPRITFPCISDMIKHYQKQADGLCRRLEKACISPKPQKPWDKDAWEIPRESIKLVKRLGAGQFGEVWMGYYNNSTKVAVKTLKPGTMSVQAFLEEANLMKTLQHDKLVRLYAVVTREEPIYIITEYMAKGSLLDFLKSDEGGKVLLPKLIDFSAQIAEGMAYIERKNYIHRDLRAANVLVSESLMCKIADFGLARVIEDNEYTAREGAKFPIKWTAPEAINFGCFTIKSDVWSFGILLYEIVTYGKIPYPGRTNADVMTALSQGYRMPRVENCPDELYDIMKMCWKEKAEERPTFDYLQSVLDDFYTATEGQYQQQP

As for `Cc1ccc(Cl)cc1-c1[nH]c(-c2nc(N)ncc2C#Cc2ccc(N3CCC(N4CCN(C)CC4)CC3)cc2)cc1C(N)=O` [compound 25, 5-[2-Amino-5-({4-[4-(4-methylpiperazin-1-yl)piperidin-1-yl]phenyl}ethynyl)pyrimidin-4-yl]-2-(5-chloro-2-methylphenyl)-1H-pyrrole-3-carboxamide], the IC50 in test [1] was 0.17 µM; at Lyn full length, 0.01 µM; on JAK2 kinase domain it was 0.002 µM.

Turning to `Cc1ccc(Cl)cc1-c1[nH]c(-c2nc(N)ncc2C#Cc2cccc(C(=O)N3CCN(C)CC3)c2)cc1C(N)=O` [compound 27, 5-[2-Amino-5-({3-[(4-methylpiperazin-1-yl)carbonyl]phenyl}ethynyl)pyrimidin-4-yl]-2-(5-chloro-2-methylphenyl)-1H-pyrrole-3-carboxamide], the IC50 in test [1] worked out at 0.58 µM; against Lyn full length, 0.001 µM; at JAK2 kinase domain it was 0.001 µM.

On to `Cc1ccc(Cl)cc1-c1[nH]c(-c2nc(N)ncc2C#Cc2ccc(N3CCC(O)CC3)cc2)cc1C(N)=O` [compound 28, 5-(2-Amino-5-{[4-(4-hydroxypiperidin-1-yl)phenyl]ethynyl}pyrimidin-4-yl)-2-(5-chloro-2-methylphenyl)-1H-pyrrole-3-carboxamide], for which the figures for the IC50 (in test [1]; against Lyn full length; at JAK2 kinase domain) were 0.33 µM, 0.001 µM and 0.001 µM, respectively.

`Cc1ccc(Cl)cc1-c1[nH]c(-c2nc(N)ncc2C#Cc2cccc(OC3CCN(C)CC3)c2)cc1C(N)=O` [compound 32, 5-[2-Amino-5-({3-[(1-methylpiperidin-4-yl)oxy]phenyl}ethynyl)pyrimidin-4-yl]-2-(5-chloro-2-methylphenyl)-1H-pyrrole-3-carboxamide]: the results for the concentration for half-maximal inhibition (IC50) (in test [1]; against Lyn full length; on JAK2 kinase domain) were 0.16 µM, 0.006 µM and 0.004 µM, respectively.

With `COc1ccc(N2CCN(C)CC2)cc1C#Cc1cnc(N)nc1-c1cc(C(N)=O)c(-c2cc(Cl)ccc2C)[nH]1` [compound 34, 5-(2-Amino-5-{[2-methoxy-5-(4-methylpiperazin-1-yl)phenyl]ethynyl}pyrimidin-4-yl)-2-(5-chloro-2-methylphenyl)-1H-pyrrole-3-carboxamide], the IC50 in test [1] came to 0.67 µM; on Lyn full length it was 0.02 µM; against JAK2 kinase domain, 0.005 µM.

On to `Cc1ccc(Cl)cc1-c1[nH]c(-c2nc(N)ncc2C#Cc2ccc(N3CCN(C)CC3)cc2F)cc1C(N)=O` [compound 42, 5-(2-Amino-5-{[2-fluoro-4-(4-methylpiperazin-1-yl)phenyl]ethynyl}pyrimidin-4-yl)-2-(5-chloro-2-methylphenyl)-1H-pyrrole-3-carboxamide], for which the half-inhibitory concentration (IC50) stood at 0.24 µM in test [1], 0.009 µM at Lyn full length and 0.011 µM against JAK2 kinase domain.

In the case of `COc1cc(N2CCN(C)CC2)ccc1C#Cc1cnc(N)nc1-c1cc(C(N)=O)c(-c2cc(Cl)ccc2C)[nH]1` [compound 46, 5-(2-Amino-5-{[2-methoxy-4-(4-methylpiperazin-1-yl)phenyl]ethynyl}pyrimidin-4-yl)-2-(5-chloro-2-methylphenyl)-1H-pyrrole-3-carboxamide], the IC50 in test [1] came to 0.29 µM; on Lyn full length, 0.018 µM; on JAK2 kinase domain, 0.006 µM.

In the case of `Cc1ccc(Cl)cc1-c1[nH]c(-c2nc(N)ncc2C#Cc2cccc(N3CCN(C)CC3)c2)cc1C(N)=O` [compound 47, 5-(2-Amino-5-{[3-(4-methylpiperazin-1-yl)phenyl]ethynyl}pyrimidin-4-yl)-2-(5-chloro-2-methylphenyl)-1H-pyrrole-3-carboxamide], the IC50 in test [1] turned out to be 0.22 µM; against Lyn full length it was 0.006 µM; at JAK2 kinase domain, 0.003 µM.

As for `Cc1ccc(Cl)cc1-c1[nH]c(-c2nc(N)ncc2C#Cc2ccc(OC3CCN(C)CC3)cc2)cc1C(N)=O` [compound 48, 5-[2-Amino-5-({4-[(1-methylpiperidin-4-yl)oxy]phenyl}ethynyl)pyrimidin-4-yl]-2-(5-chloro-2-methylphenyl)-1H-pyrrole-3-carboxamide], the IC50 was 0.16 µM in test [1], 0.008 µM against Lyn full length and 0.006 µM against JAK2 kinase domain.

As for `Cc1ccc(Cl)cc1-c1[nH]c(-c2nc(N)ncc2C#Cc2cc(N3CCN(C)CC3)ccc2F)cc1C(N)=O` [compound 49, 5-(2-Amino-5-{[2-fluoro-5-(4-methylpiperazin-1-yl)phenyl]ethynyl}pyrimidin-4-yl)-2-(5-chloro-2-methylphenyl)-1H-pyrrole-3-carboxamide], the results for the IC50 (in test [1]; at Lyn full length; against JAK2 kinase domain) were 0.14 µM, 0.02 µM and 0.005 µM, respectively.

As to `Cc1ccc(Cl)cc1-c1[nH]c(-c2nc(N)ncc2C#CCN2CCN(C)CC2)cc1C(N)=O` [compound 50, 5-{2-Amino-5-[3-(4-methylpiperazin-1-yl)prop-1-yn-1-yl]pyrimidin-4-yl}-2-(5-chloro-2-methylphenyl)-1H-pyrrole-3-carboxamide], the IC50 in test [1] stood at 1.38 µM; on Lyn full length it was 0.026 µM; on JAK2 kinase domain it was 0.007 µM.
